According to patent US5948814A, “Genistein for the treatment of cystic fibrosis” (priority 1998, dated 1999):
Where “and” joins values, the source holds several entries; their conditions need not be identical. Equal values may be shown once.

How the values were obtained:
[1] = test system: mock-transfected NIH/3T3 cells; assay: I- efflux, mock-transfected NIH/3T3 cells; format: cell-based
Method: (§1) Cell culture: NIH/3T3-CFTR, NIH/3T3-ΔF508, and NIH/3T3 mock cells (generous gifts from Dr. Richard Mulligan of Children's Hospital and Medical Center, Harvard Medical School) were grown as described [Bradbury et al., 1992] at 37° C. and 5% CO2 in Dulbecco's modified Eagle's medium-H21 supplemented with 10% new-born calf serum, 4 mM glutamine, 25 mM glucose, 100 μg/ml penicillin, 100 μg/ml streptomycin, and 50 μg/ml gentamicin. Cells were maintained in T75 flasks, passaged at 90-95% confluency, and split one to four. For measurements of I^- efflux and in vivo phosphorylation, cells were seeded onto 35-mm dishes at […]. For patch-clamp experiments, cells were grown on coverglass chips in 35-mm culture dishes. Media were replaced 24 hours after plating and thereafter every 48 hours. In all cases, media were changed on the day before I^- efflux studies, NIH/3T3-ΔF508 cells were transferred to 27° C. three days before use, and 1 day prior to study, media were supplemented with 5 mM butyrate. For patch-clamp studies, where a constant level of functional ΔF508-CFTR was not essential, NIH/3T3-ΔF508 cells were cultured at 27° C. for 2-6 days before use. Calu-3 cells were grown and maintained as described by Hunter [1995].
I^- efflux: I^- efflux was measured as described previously [Reenstra et al., 1996]. Briefly, cells were incubated for 30 minutes with 37° C. I^- efflux buffer [(in mM) 141 NaCl, 4 KCl, 1 KH2 PO4, 0.9 MgCl2, 1.7 CaCl2. […] Extracellular ^125 I^- was removed by washing four times with efflux buffer, and the rate of loss of intracellular ^125 I^- was determined by replacing the bathing solution with 37° C. efflux buffer every 60 seconds for 12 minutes. Time-dependent rates of ^125 I^- efflux are calculated from R=ln(^125 I^-t1 /^125 I^-t2)/(t1-t2), where ^125 I^-t is the intracellular ^125 I^- at time t and t1 and t2 are successive time points. […]
To investigate effects of genistein on CFTR activity, the rates of I^- efflux were measured from stably transfected NIH/3T3 cells expressing wt- and ΔF508-CFTR (NIH/33-CFTR and NIH/3T3-ΔF508 cells, respectively). […]

ΔF508-CFTR = ΔF508-CFTR (Homo sapiens, UniProt P13569, DEL508-508); assay: Mean current-variance analysis of macroscopic currents, NIH/3T3-ΔF508 cells; format: cell-based; design: expressed in transfected cells; host or cells: NIH/3T3 cells, stably transfected (NIH/3T3-ΔF508, gift of Dr. Richard Mulligan)
Method: FIGS. 4A and B are graphs showing the variance analysis of macroscopic currents for wt- and ΔF508-CFTR wherein (A) is a plot of variance as a function of mean-current amplitude for NIH/3T3-CFTR(.circle-solid.) and NIH/3T3-ΔF508 (.smallcircle.) cells stimulated with 10 μM forskolin plus 50 μM genistein. (B) is a plot of variance as a function of mean-current amplitude for NIH/3T3-CFTR (.circle-solid.) and NIH/3T3-ΔF508 (.smallcircle.) cells stimulated with 10 μM forskolin. Lines are least square regressions.
Electrophysiology: CFTR channel currents were recorded at room temperature (~22° C.) with a patch-clamp amplifier (EPC-9, Heka Electronic), filtered at 100 Hz with a built-in three-pole Bessel filter, and stored on videotapes. Data were subsequently refiltered at 25 Hz with an eight-pole Bessel filter (Frequency Device, Havervill, Mass.) and captured onto a hard disk at a sampling rate of 50 Hz. […] Patch-clamp electrodes were made from Corning 7052 glass capillaries (Warner Instrument, Hammed, Conn.). The pipette resistance was usually 3-5 M.OMEGA., and the seal resistance was >20 G.OMEGA.. […]
Statistics: Mean currents and variance were estimated with Igor (Wavemetrics, Lake Oswego, Oreg.). […] Po was calculated from patches containing a single channel by dividing the open channel current amplitude with the mean-current amplitude. […] Calculated values are presented as means±SE. […]

wt-CFTR = wt-CFTR (Homo sapiens, UniProt P13569)
Method: FIGS. 3A and B show recordings of the potentiation of wild-type (wt) and ΔF508-CFTR channel activity by genistein. […]
as §1
Electrophysiology: CFTR channel currents were recorded at room temperature (~22° C.) with a patch-clamp amplifier (EPC-9, Heka Electronic), filtered at 100 Hz with a built-in three-pole Bessel filter, and stored on videotapes. Data were subsequently refiltered at 25 Hz with an eight-pole Bessel filter (Frequency Device, Havervill, Mass.) and captured onto a hard disk at a sampling rate of 50 Hz. […] Patch-clamp electrodes were made from Corning 7052 glass capillaries (Warner Instrument, Hammed, Conn.). The pipette resistance was usually 3-5 M.OMEGA., and the seal resistance was >20 G.OMEGA.. The pipette solution contained (in mM) 140 N-methyl-D-glucamine chloride (NMDG-C1), 2 MgCl2, 5Ca Cl2, and 10 HEPES (pH 7.4 with NMDG). The superfusion solution contained (in mM) 150 […], 2 MgCl2, 1 EGTA, 5 glucose, and 5 HEPES (pH 7.4 with NaOH). In excised inside-out patch experiments, the bath solution contained (in mM) 130 MNDG-Cl, 10 EGTA, 10 HEPES, 20 tetraethylammonium chloride, 8 Tris, and 2 MgCl2 (pH 7.4 with NMDG). Pipette potential was held at 50 mV relative to the bath. Downward deflections represent channel opening.
Statistics: Mean currents and variance were estimated with Igor (Wavemetrics, Lake Oswego, Oreg.). Parameters for mean current-variance relationships and dose-response curves were obtained from least-square fitting with Sigmaplot (Jandel, San Rafael, Calif.). Po was calculated from patches containing a single channel by dividing the open channel current amplitude with the mean-current amplitude.

wt-CFTR, sequence (P13569 whole entry): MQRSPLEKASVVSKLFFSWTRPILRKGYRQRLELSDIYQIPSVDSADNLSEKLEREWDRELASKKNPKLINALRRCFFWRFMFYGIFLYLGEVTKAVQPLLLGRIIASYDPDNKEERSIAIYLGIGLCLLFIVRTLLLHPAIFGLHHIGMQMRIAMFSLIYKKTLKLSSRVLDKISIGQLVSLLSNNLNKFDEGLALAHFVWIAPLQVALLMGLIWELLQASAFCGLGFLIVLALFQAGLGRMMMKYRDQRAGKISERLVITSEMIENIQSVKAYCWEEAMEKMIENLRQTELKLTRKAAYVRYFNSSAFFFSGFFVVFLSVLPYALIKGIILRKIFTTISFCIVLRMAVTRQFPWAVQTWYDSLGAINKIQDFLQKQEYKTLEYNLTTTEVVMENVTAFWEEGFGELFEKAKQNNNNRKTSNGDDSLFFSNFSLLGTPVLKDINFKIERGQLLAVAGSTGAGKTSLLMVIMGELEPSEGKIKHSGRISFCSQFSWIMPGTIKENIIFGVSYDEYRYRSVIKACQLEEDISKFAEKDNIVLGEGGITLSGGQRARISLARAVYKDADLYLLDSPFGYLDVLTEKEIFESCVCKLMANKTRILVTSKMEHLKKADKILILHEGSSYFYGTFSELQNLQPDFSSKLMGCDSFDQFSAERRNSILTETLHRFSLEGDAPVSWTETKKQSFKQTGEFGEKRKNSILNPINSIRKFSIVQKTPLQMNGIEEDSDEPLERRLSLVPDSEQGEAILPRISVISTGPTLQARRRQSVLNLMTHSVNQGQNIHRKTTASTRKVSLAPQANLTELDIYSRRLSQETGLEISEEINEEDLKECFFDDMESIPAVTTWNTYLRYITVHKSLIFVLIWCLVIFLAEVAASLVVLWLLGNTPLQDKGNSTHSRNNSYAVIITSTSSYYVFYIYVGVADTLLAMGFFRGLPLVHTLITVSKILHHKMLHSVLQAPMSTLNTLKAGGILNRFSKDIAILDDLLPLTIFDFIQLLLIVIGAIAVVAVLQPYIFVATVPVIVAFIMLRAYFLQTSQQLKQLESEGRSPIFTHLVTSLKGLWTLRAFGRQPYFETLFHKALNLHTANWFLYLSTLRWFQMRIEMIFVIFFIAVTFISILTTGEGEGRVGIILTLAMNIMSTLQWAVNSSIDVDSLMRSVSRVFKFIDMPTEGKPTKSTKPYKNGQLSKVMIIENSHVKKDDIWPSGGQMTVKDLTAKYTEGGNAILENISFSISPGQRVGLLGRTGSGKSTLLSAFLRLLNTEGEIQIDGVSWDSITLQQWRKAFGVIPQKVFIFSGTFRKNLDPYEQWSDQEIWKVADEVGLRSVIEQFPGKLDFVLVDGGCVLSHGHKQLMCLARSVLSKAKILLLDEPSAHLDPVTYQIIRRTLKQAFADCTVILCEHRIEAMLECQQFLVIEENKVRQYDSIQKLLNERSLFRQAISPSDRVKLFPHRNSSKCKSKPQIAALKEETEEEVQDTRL
ΔF508-CFTR, sequence (P13569 with tags, fused parts or gaps DEL508-508): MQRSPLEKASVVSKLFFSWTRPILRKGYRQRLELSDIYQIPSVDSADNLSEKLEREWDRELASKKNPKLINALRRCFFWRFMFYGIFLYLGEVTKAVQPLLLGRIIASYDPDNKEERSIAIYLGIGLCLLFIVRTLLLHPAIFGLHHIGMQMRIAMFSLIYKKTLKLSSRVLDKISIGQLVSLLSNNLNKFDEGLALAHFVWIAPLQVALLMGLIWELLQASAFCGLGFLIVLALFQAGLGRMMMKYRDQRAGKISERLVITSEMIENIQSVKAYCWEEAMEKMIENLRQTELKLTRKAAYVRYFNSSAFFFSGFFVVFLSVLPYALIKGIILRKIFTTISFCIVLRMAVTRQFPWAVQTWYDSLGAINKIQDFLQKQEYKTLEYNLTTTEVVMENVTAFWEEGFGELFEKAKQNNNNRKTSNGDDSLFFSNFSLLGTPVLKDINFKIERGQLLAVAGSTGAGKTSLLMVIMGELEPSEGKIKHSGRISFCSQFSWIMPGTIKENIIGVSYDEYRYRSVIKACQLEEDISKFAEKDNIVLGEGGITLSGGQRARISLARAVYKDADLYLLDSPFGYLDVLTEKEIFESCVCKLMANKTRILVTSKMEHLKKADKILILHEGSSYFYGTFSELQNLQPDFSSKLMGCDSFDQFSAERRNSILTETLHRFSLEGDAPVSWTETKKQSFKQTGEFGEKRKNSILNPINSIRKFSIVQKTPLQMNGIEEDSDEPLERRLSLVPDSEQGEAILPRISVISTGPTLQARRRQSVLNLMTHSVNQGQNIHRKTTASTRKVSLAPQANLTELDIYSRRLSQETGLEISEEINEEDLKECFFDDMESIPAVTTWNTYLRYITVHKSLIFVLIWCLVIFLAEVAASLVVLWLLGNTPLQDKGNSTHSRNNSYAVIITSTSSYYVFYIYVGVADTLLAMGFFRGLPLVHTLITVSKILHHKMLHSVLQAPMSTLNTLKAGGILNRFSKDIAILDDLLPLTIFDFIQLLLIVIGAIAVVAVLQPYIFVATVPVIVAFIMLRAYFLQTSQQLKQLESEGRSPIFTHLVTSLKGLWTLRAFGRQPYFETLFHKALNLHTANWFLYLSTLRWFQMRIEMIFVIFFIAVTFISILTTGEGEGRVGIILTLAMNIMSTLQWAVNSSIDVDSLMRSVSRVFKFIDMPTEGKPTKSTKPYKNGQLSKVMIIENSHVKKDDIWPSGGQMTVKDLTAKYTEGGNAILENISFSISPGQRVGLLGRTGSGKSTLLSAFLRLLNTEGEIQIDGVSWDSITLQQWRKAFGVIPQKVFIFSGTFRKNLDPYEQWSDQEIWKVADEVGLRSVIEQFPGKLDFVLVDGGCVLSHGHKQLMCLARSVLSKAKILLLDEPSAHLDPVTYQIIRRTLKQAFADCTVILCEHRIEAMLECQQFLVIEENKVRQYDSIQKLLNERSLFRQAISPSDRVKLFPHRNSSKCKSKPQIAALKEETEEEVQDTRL

| Compound | stimulation of I- efflux in mock cells ([1]; 50 μM genistein) | stimulation of I- efflux in mock cells ([1]; 50 μM genistein plus 1 μM forskolin) | slope of variance vs mean current (proportional to 1-Po) (ΔF508-CFTR; 10 μM forskolin and 50 μM genistein) [pA] | macroscopic current (wt-CFTR; 5 μM genistein with 50 nM forskolin) | average increase in mean-current amplitude by genistein (wt-CFTR; 50 μM genistein on 10 μM forskolin, NIH/3T3-CFTR, 50 µM) | increase of forskolin-dependent wt-CFTR activity by genistein (wt-CFTR; 50 μM genistein, NIH/3T3-CFTR cells incubated at 27° C. for 2-6 days, n=13) [fold] | increase of wt-CFTR current by genistein (wt-CFTR; multichannel patches, 50 nM forskolin, n=6) [fold] | stimulation of I- efflux in mock cells ([1]; 1 μM forskolin) | slope of variance vs mean current (proportional to 1-Po) (ΔF508-CFTR; 10 μM forskolin) [pA] | single-channel current steps observed (wt-CFTR; 50 nM forskolin) |
| --- | --- | --- | --- | --- | --- | --- | --- | --- | --- | --- |
| O=c1c(-c2ccc(O)cc2)coc2cc(O)cc(O)c12 [Genistein, 4',5,7-trihydroxyisoflavone] | neither 1 μM forskolin, 50 μM genistein, nor 50 μM genistein plus 1 μM forskolin stimulated | neither 1 μM forskolin, 50 μM genistein, nor 50 μM genistein plus 1 μM forskolin stimulated | 0.16±0.03 | ~ 7.5 pA | 3.9±0.4 fold and 3.3±0.4 fold | 3.1±0.3 | 21±6 | – | – | – |
| C=C[C@@]1(C)CC(=O)[C@]2(O)[C@@]3(C)[C@@H](O)CCC(C)(C)[C@@H]3[C@H](O)[C@H](OC(C)=O)[C@@]2(C)O1 [forskolin] | – | – | – | – | – | – | – | neither 1 μM forskolin, 50 μM genistein, nor 50 μM genistein plus 1 μM forskolin stimulated | 0.72±0.06 | ≤ 4 |
